Laboratory results published in PMC12454639, “Direct disassembly of α-syn preformed fibrils into α-syn monomers by an all-D-peptide” (NPJ Parkinson's Disease, 2025).
Square brackets hold non-standard residues; d marks the D form. Peptide text beside a SMILES is read from it.

Tests used:
Solubility of D-peptides = conditions: PBS pH 7.4, 1 h at 37 °C, 20,800×g centrifugation, UV–vis absorption; lyophilized chloride salt
[1] = test system: α-synA53T–YFP (HEK293T cells); assay: Seeded intracellular aggregation in α-synA53T–YFP cells; format: cell-based, human; conditions: day 3; for aggregate-positive cells: transfected, then 30 nM small α-syn PFF seeds
Excerpt: Fig. 5 SVD-1a inhibits seeded α-syn aggregation in cells. To validate the inhibitory effect of SVD-1a in cells, we used the α-synA53T–YFP cell system, which stably expresses human α-syn with the familial A53T mutation fused to YFP in HEK293T cells and enables fluorescence-based detection of aggregates that show up as highly fluorescent spots within the cells, clearly above background, intracellularly after seeding with small α-syn PFF seeds. In order to avoid interference of the peptide with the uptake of small α-syn PFF seeds, we performed a two-step transfection starting with a first transfection of the peptide and a second transfection with PFFs. […] To quantify the number of cells with aggregates in our images and to avoid experimental bias, we used a fully automated algorithm for image analysis. […] One asterisk denotes p values < 0.05 and three asterisks a p value < 0.001. Error bars indicate standard deviation. […] Treatment with increasing concentrations of SVD-1a, here imaged at 25 µM, led to a concentration-dependent reduction in the number of cells with aggregates (H-J). Panels B, E, and H show nuclei stained with Hoechst 33342. Panels C, F, and I show αSynA53T–YFP fluorescence. Panels D, G, and J show merged images. The scale bar in J represents 100 µm and applies to all panels. The viability of the cells was not reduced by transfection with seeds or in SVD-1a, as shown in Supplementary Fig. 15. Confirmation that highly fluorescent aggregates contain α-syn is shown in Supplementary Fig. 14 by co-immunostaining with syn-211 antibody, anti-α-syn (phospho S129) antibody and 5G4 antibody.
A construct encoding full-length A53T-mutated human α-syn fused with YFP at the C-terminus was synthesized and introduced into the pMK–RQ expression vector (GeneArt; Thermo Fisher Scientific, USA). The α-synA53T–YFP construct was subcloned into the pIRESpuro3 vector (Clontech; Takara Bio, JPN) using NheI (5′) and NotI (3′) restriction sites. HEK293T cells (American Type Culture Collection) were cultured in high-glucose Dulbecco’s modified Eagle’s medium (DMEM; Sigma-Aldrich, USA) supplemented with 10% fetal calf serum (Sigma-Aldrich, USA), and 50 units/ml penicillin as well as 50 μg/ml streptomycin (Sigma-Aldrich, USA). Cells were cultured in a humidified atmosphere of 5% CO2 at 37 °C. Cells plated in DMEM were transfected using Lipofectamine 2000 (Invitrogen; Thermo Fisher Scientific, USA). Stable cells were selected in DMEM containing 1 μg/ml puromycin (EMD Millipore, USA). Monoclonal lines were generated by fluorescence-activated cell sorting of a polyclonal cell population in 96-well plates using a MoFlo XDP cell sorter (Beckman Coulter, USA). Finally, the clonal cell line B5 was selected from among 24 clonal cell lines and is referred to as αSynA53T–YFP cells. Peptides were incubated with 1.5% Lipofectamine 2000 in OptiMEM for 2 h at room temperature. […] On day 3 the cells were imaged with an IN Cell Analyzer 6500HS System (Cytiva, USA) using the blue and green fluorescence channel, and analyzed using IN Carta Image Analysis Software (Cytiva, USA) after an algorithm was established to identify intracellular aggregates in living cells. For each condition, we used four wells and took 16 images per well, which were analyzed by a fully automated algorithm to avoid bias. […]

Row | concentration completely retained in supernatant (Solubility of D-peptides) | SMILES | aggregate-positive cells ([1]; 5 µM peptide) [%] | aggregate-positive cells ([1]; 25 µM peptide) [%] | inhibition of intracellular seeded α-syn aggregation ([1]; peptide transfection, then 30 nM PFF seeds)
1 | at least 1 mM | CC[C@@H](C)[C@@H](NC(=O)[C@@H](Cc1c[nH]cn1)NC(=O)[C@@H](CCC(=O)O)NC(=O)[C@@H](CCC(N)=O)NC(=O)[C@@H](Cc1c[nH]c2ccccc12)NC(=O)[C@@H](Cc1ccc(O)cc1)NC(=O)[C@H](NC(=O)[C@@H](CCC(=O)O)NC(=O)[C@@H](Cc1c[nH]cn1)NC(=O)[C@H](NC(=O)[C@H]1CCCN1C(=O)[C@@H](CCSC)NC(=O)[C@H](N)CCCCN)[C@H](C)O)[C@H](C)O)C(=O)N[C@H](Cc1c[nH]c2ccccc12)C(=O)N[C@H](Cc1c[nH]cn1)C(=O)N[C@H](C)C(N)=O [SVD-1] (H-[dK][dM][dP][dT][dH][dE][dT][dY][dW][dQ][dE][dH][dI][dW][dH][dA]-NH2) | – | – | –
2 | – | CC[C@@H](C)[C@@H](NC(=O)[C@@H](Cc1c[nH]cn1)NC(=O)[C@@H](CCC(=O)O)NC(=O)[C@@H](CCC(N)=O)NC(=O)[C@@H](Cc1c[nH]c2ccccc12)NC(=O)[C@@H](Cc1ccc(O)cc1)NC(=O)[C@H](NC(=O)[C@@H](CCC(=O)O)NC(=O)[C@@H](Cc1c[nH]cn1)NC(=O)[C@H](NC(=O)[C@H]1CCCN1C(=O)[C@@H](CC(C)C)NC(=O)[C@H](N)CCCNC(=N)N)[C@H](C)O)[C@H](C)O)C(=O)N[C@H](Cc1c[nH]c2ccccc12)C(=O)N[C@H](Cc1c[nH]cn1)C(=O)N[C@H](C)C(=O)N[C@H](CCCNC(=N)N)C(=O)N[C@H](CCCNC(=N)N)C(=O)N[C@H](CCCNC(=N)N)C(=O)N[C@H](CCCNC(=N)N)C(=O)N[C@H](CCCNC(=N)N)C(N)=O [SVD-1a] (H-[dR][dL][dP][dT][dH][dE][dT][dY][dW][dQ][dE][dH][dI][dW][dH][dA][dR][dR][dR][dR][dR]-NH2) | 64 | 57 | inhibited α-syn aggregation in αSynA53T–YFP cells in a dose-dependent manner
